# From patent publication US20220354911A1, “TREATMENT OF TUMORS BY A COMBINATION OF AN ONCOLYTIC ADENOVIRUS, A CDK4/6 INHIBITOR AND A FURTHER THERAPEUTICALLY ACTIVE AGENT” (KLINIKUM RECHTS DER ISAR DER TECHNISCHEN UNIVERSITÄT MÜNCHEN, priority 2019, published 2022)
# What was measured:
# XVir-N-31 [1] = test: XVir-N-31 replication in UMUC-3 cells, JQ-1 priming or concurrent treatment (fiber qPCR); format: cell-based, Mastadenovirus, Type C, Serotype 5; details: UMUC-3, 10 MOI, 100 nM or 500 nM JQ-1, 24 hours post infection
# Protocol: 2.5×10^4 UMUC-3 cells were seeded in 12 well plates in DMEM medium. The following day the cells were treated with JQ-1 (priming) or DMEM medium. At the next morning the cells were infected with 10 MOI XVir-N-31. One hour after infection DMEM Medium containing JQ-1 was added on the cells (concurrent treatment). After each 4 and 24 hours, the cells were washed once with PBS and 200 μl of SDS DNA Lysis Buffer was added. The cells were incubated with Proteinase K for at least 1 hour before undergoing a phenol-chloroform-isoamylalcohol purification. The DNA was diluted in 1×TE buffer and the concentration of the DNA was determined using a Nanodrop. For each sample a solution of 15 ng/μl was prepared and a RT-qPCR using 75 ng of DNA and a GoTaq Master mix. Specific fiber forward and reverse primers were used and for the calculation of the Δ ct value specific Actin primers were used as well. For each sample 3 Fiber and 3 Actin values were measured. The calculation was done in excel and each 24 hours value was calculated based on its 4 hours value (initial viral entry, before replication).
# T24 cells = test: Potency assay (SRB), XVir-N-31, Palbociclib and JQ-1; format: cell-based, human
# Protocol: 5000 T24 cells were seeded in 12 well plates and grown in 1 ml RPMI-Medium containing 10% FCS. Next day cells were treated with 500 nM Palbociclib and 300 nM JQ-1. 24 hours post treatment cells were infected with indicated MOIs of XVir-N-31 in 200 μl RPMI-Medium containing no FCS. After 1 hour 800 μl RPMI-Medium containing 10% FCS were added into each well. In addition, 500 nM Palbociclib and 300 nM JQ-1 were added to the medium. SRB-Staining took place 5 days post infection. Mock treated cells were set 100% cell survival.
# XVir-N-31 [2] = test: Hexon Titer test, particle formation of XVir-N-31 in UMUC-3 cells; format: cell-based, Mastadenovirus, Type C, Serotype 5
# Protocol: The production of viral particles was analyzed via immunohistochemistry-staining of hexon proteins (Hexon Titer test). Therefor, 2×10^5 adherent HEK293 cells per well were seeded in 24-well plates. Cell cultures samples collected after indicated time-points post infection and indicated co-treatment with JQ-1 were pretreated with three cycles thaw-freeze to release viral particles from cells and then serially diluted. The HEK293 cells were infected in volumes of either 50 μl or 10 μl per sample. The plates were then incubated for 40 h at 37° C. and 10% CO2 before checking for detectable cytopathic effects. The medium was aspirated, and the plates were dried for 5-10 min before fixing the cells by adding ice-cold methanol for 10 min at −20° C. The wells were washed twice with PBS+1% BSA. The primary antibody (goat anti-hexon, 1:500) was added and the plates were incubated for 1 h at 37° C. before washing it twice with PBS+1% BSA. Next, the secondary antibody (Rabbit Anti-Goat HRP conjugate, 1:1000) was added and incubated for 1 h at 37° C. Again, the wells were washed twice with PBS containing 1% BSA before the DAB solution was added. After 30 min incubation, 10 different random fields of view (f.o.v.) per well were counted under the 20× objective of a microscope. Counting iterations were averaged and according to this formula, infectious particles per ml were calculated: […]
# SK-N-MC cells = test: Potency assay (SRB), XVir-N-31, Abemaciclib and JQ-1; format: cell-based; details: CDK 4/6 (Abemaciclib) resistant SK-N-MC cells, 200 nM Abemaciclib + 500 nM JQ-1, XVir-N-31, 5 days post infection
# Protocol: 100,000 SK-N-MC cells/well were seeded in 12-well plates and grown in RPMI Medium containing 10% FCS at 5% CO2 at 37° C. Cells were treated with 200 nM Abemaciclib+500 nM JQ-1 24 hours before and again 1 hour post infection by adding appropriate amount to the medium. Infection of XVir-N-31 took place in 500 μl in RPMI Medium without serum. SRB-Staining took place 5 days post infection. Mock treated cells were set 100% cell survival.
# LN229 cells = test: Western blot of XVir-N-31 infected LN229 cells, LEE011 and JQ1; format: cell-based
# Protocol: 2.5×10^5 LN229 cells were seeded in 10 cm plates in DMEM medium. The following day the cells were treated with 500 nM LEE011 and 200 nM JQ1 or a combination of both. At the next morning the cells were infected with XVir-N-31 at 20 MOI. One hour after infection DMEM Medium containing the inhibitors was added on the cells. After each time point (24, 48, 72 hours) the cells were put on ice, washed twice with ice-cold PBS and 300 μl of SDS Protein Lysis Buffer was added. The cells were transferred to reaction tubes and the DNA sheared with a syringe and a needle and the supernatant transferred for further use after centrifugation. The protein concentration was measured with a BCA assay and samples with 4× Lämmli:DTT 6:1 and a concertation of 20 μg were produced and transferred to a 10% SDS gel. The gel electrophoresis started at 90V and was increased to 150V after the ladder started to separate. The proteins on the gel were blotted to a membrane for 2 hours at 100V and blocked in 5% milk in TBS-T for 1 hour at RT. After washing in TBS-T, the first antibody was added according to the manufacturer's information over night at 4° C. The used antibodies were directed to GAPDH, E1A, DBP, E2F1, Rb, pRb for all time points, and caspase 3 and the full length and cleaved version of PARP additionally for the 72 hours samples. The next day, the washing was repeated and the secondary antibody added for 1 hour at RT. Following the washing, ECL was used to image the chemiluminescence by the ChemiDoc™ MP Imaging System.
# [3] = LN229, with XVir-N-31, 48 hours post infection
# [4] = LN229, with XVir-N-31, 72 hours post infection
structure (smiles),measurement,setting,value
"Cc1sc2c(c1C)C(c1ccc(Cl)cc1)=N[C@@H](CC(=O)OC(C)(C)C)c1nnc(C)n1-2 [JQ-1, thieno-triazolo-1-4-diazepine]","XVir-N-31 replication, concurrent treatment with JQ-1",XVir-N-31 [1],crucial for dual therapy success
same,"XVir-N-31 replication, priming with JQ-1",XVir-N-31 [1],no beneficial effect
same,"cell killing of XVir-N-31, JQ-1 monotherapy","T24 cells; T24, 300 nM JQ-1 alone, 10 and 20 MOI",did not increase cell killing
same,cell killing capacity of XVir-N-31 in combination with Palbociclib,"T24 cells; T24, 500 nM Palbociclib, 300 nM JQ-1, low MOIs, 5 days post infection",increased the cell killing capacity
same,particle formation of XVir-N-31,"XVir-N-31 [2]; 500 nM JQ-1, 39, 49, 62 or 72 hpi",significantly increased
same,kinetic of XVir-N-31's particle formation,XVir-N-31 [2]; concurrent treatment with 500 nM JQ-1,highly accelerated
same,cell killing on addition of JQ-1,SK-N-MC cells,did not increase cell killing
same,viral proteins E1A and DBP,"LN229 cells; LN229, XVir-N-31 MOI 20, 500 nM LEE011 or/and 200 nM JQ-1, 24 hours post infection",increased
same,viral proteins E1A and DBP,"LN229 cells; LN229, XVir-N-31 MOI 20, 500 nM LEE011 or/and 200 nM JQ-1, 48 hours post infection",increased
same,viral proteins E1A and DBP,"LN229 cells; LN229, XVir-N-31 MOI 20, 500 nM LEE011 or/and 200 nM JQ-1, 72 hours post infection",increased
same,cellular proteins Rb and pRb,"LN229 cells; LN229, with XVir-N-31, 24 hours post infection",remained inhibited
same,E2F-1,LN229 cells; [3],stabilized
same,cellular proteins Rb and pRb,LN229 cells; [3],remained inhibited
same,E2F1,LN229 cells; [4],enhanced
same,cellular protein Rb,LN229 cells; [4],decreased
same,presence of cleaved PARP,"LN229 cells; XVir-N-31 infected LN229 cells, 72 hours post infection",increased
